In patent publication US20220137028A1, “In Vitro Assays as Indicator of Local Tolerance” (Lonza Ltd, priority 2019, published 2022):

Assays:
[1] = test system: human heparinized whole blood (erythrocytes); test: In vitro hemolysis test with co-solvents (study procedure, Drabkin's solution, absorbance 540 nm); conditions: for max. well tolerated co-solvent concent: co-solvent diluted with NaCl 0.9%, intersection of fitted sigmoidal curve with 5% hemolysis line, 10 min at 37° C.; for hemolysis value: human, 10 min, 10 % v/v
Protocol: A test was developed to determine the hemolytic activity of a pharmaceutical formulation. The test utilized fresh anticoagulated human blood. In general, the test was performed by diluting the pharmaceutical product with fresh saline, then mixing with an aliquot of fresh human whole blood. After incubating at 37° C., the test solutions were centrifuged, and the concentration of hemoglobin was measured in the supernatant using spectroscopic techniques.
To determine the 100% hemolysis value, equal volumes of […] and blood were mixed, centrifuged, and mixed again. 30 μl was transferred to a plate, and 170 μl of Drabkin's reagent was added. The 100% hemolysis value was indicated as Value A.
To determine the 0% hemolysis value, equal volumes of saline and blood were mixed. The 0% hemolysis value is indicated as Value B.
The dilutions were performed in glass or plastic tubes with a diameter of approximately 12 mm and a length of approximately 100 mm.
400 μl of whole blood was added to each tube. The components were carefully homogenized. The tubes were incubated for 10 minutes at 37° C., homogenized again and then centrifuged for 10 minutes at 2500×g. The contents of the tube were mixed for Value A (100% hemolysis) and then transferred 3 times 30 μl of each tube of the supernatant to a 96-well plate (flat bottom) and 170 μl of Drabkin's solution was added to each well containing solution. The plate was read in a plate reader at wavelength 540 nm.
For evaluation of the test results from the plate reader reading at wavelength 540 nm, the mean values of the triplicates were calculated. The percent hemolytic activity was determined according to the following formula:
wherein: % HA=percent hemolytic activity; A=Value for 100% HA; B=Value for 0% HA; C=Value for tested solution.
Dilutions of the co-solvents were prepared in tubes. An equal volume of human heparinized whole blood was added and homogenized. The test co-solvents were diluted in sterile, pyrogen-free water and sterile, pyrogen-free saline.
The following equation was used to obtain a curve fitting of the hemolysis data: […]
The maximal well tolerated co-solvent concentration was obtained by calculating the intersection of the sigmoidal curves with the horizontal line at hemolysis, i.e., 5%.

[2] = Tonicity of 10% co-solvent solutions; assay type: physicochemical; conditions: solutions with 10% co-solvent

## Polyethylene glycol 300 [PEG 300]
[1]
  co-solvent concentration at which significant (>10%) hemolysis is induced: 60-70%
  effect of switch from water for injection to saline as diluent on hemolytic behavior: did not drastically modify the hemolytic behavior
[2]
  tonicity of the solution: isotonic

## Polyethylene glycol 400 [PEG 400]
[1]
  co-solvent concentration at which significant (>10%) hemolysis is induced: 50-60%
  effect of switch from water for injection to saline as diluent on hemolytic behavior: did not drastically modify the hemolytic behavior
[2]
  tonicity of the solution: close to isotonicity

## CC(O)CO (stereo not drawn) [PG, Propylene glycol]
[1]
  hemolysis at the lowest tested co-solvent concentration (in words): high hemolysis
  max. well tolerated co-solvent concent: 48%
  hemolysis value: ~100%
[2]
  tonicity of the solution: clearly hypertonic

## CCO [Ethanol]
[1]
  flocculation in hemolysis test: significant flocculation
  hemolysis at the lowest tested co-solvent concentration (in words): high hemolysis
  max. well tolerated co-solvent concent: 29%
  hemolysis value: ~100%
[2]
  tonicity of the solution: clearly hypertonic
